Experiments:
[1] = system: isolated rat bladder strips; test: Inhibition of contractions of isolated rat bladder strips; settings: strips stimulated with additional 15 mM KCl; for IC50: 0.5 h, concentration eliciting 50% inhibition of pre-drug contractile activity, 30 minute challenge per concentration, read-out: IC50; for inhibition at 30 µM: maximum percentage inhibition of contractile activity, read-out: % Inhibition of Contractility @ 30 μM
Method: The compounds of the examples were tested to determine their ability to inhibit contractions of isolated rat bladder strips. See Foster, C. […] Malmgren, A. et al. J.Urol.
Male Sprague-Dawley rats (150-200 g) were obtained from ACE animal suppliers. Animals were allowed free access to food and water.
Animals were euthanized by CO2 asphyxiation followed by a bilateral thoracotomy. […] The bladder was opened and then cut into strips 1-2 mm in width and 7-10 mm in length. The strips were subsequently suspended in a 10 ml tissue bath under an initial resting tension of 1.5 g. The strips were held in place by two surgical clips one of which was attached to a fixed hook while the other was attached to an isometric force transducer. […] The carbachol was then washed out and the tissue allowed to relax to its resting level of activity. Following a further 30 minute period of recovery an additional 15 mM KCl were introduced into the tissue bath. […] Following stabilization of this enhanced level of contractile activity, incremental increases in the concentration of test compound or vehicle were introduced into the tissue bath. Contractile activity was measured for each compound or vehicle concentration during the last minute of a 30 minute challenge.
Isometric force developed by the bladder strips was measured using a force transducer and recorded on a polygraph. Contractile activity was assessed by measuring either the average amplitude of the contractions (baseline to peak force) occurring during a one minute period or, preferably, by integrating the contractile activity with respect to time (one minute measuring period).
The percentage inhibition of contractile activity evoked by each concentration of a given test compounds was used to generate a concentration-response curve.

Structure (SMILES) | IC50 [1] | melting point | inhibition at 30 µM [1]
CC(=O)Nc1ccc2oc3c(c2c1)CCCC3 [Example 11, N-(6,7,8,9-TETRAHYDRO-DIBENZOFURAN-2-YL)-ACETAMIDE] |  | 195.5 to 197.5 °C | 20 to 30%
CCC(=O)Nc1ccc2oc3c(c2c1)CCCC3 [Example 8, N-(6,7,8,9-TETRAHYDRO-DIBENZOFURAN-2-yl)-PROPIONAMIDE] | 4000 to 8000 nM | 164 to 165 °C | 
CC(C)CC(=O)Nc1ccc2oc3c(c2c1)CCCC3 [Example 2, 3-METHYL-N-(6,7,8,9-TETRAHYDRO-DIBENZOFURAN-2-YL)-BUTYRAMIDE] | 1200 to 4000 nM | 154 to 157 °C | 
CC(C)C(=O)Nc1ccc2oc3c(c2c1)CCCC3 [Example 9, N-(6,7,8,9-TETRAHYDRO-DIBENZOFURAN-2-YL)-ISOBUTYRAMIDE] | 6000 to 8000 nM | 206.5 to 208 °C | 
O=C(Nc1ccc2oc3c(c2c1)CCCC3)C12CC3CC(CC(C3)C1)C2 [Example 5, ADAMANTANE-1-CARBOXYLIC ACID (6,7,8,9-TETRAHYDRO-DIBENZOFURAN-2-YL)-AMIDE] |  | 247 to 248 °C | 10 to 30%
CC(C)(C)C(=O)Nc1ccc2oc3c(c2c1)CCCC3 [Example 1, 2,2-DIMETHYL-N-(6,7,8,9-TETRAHYDRO-DIBENZOFURAN-2-YL)-PROPIONAMIDE] | 200 to 700 nM | 210 to 211 °C | 
CC(C)(C)c1ccc(C(=O)Nc2ccc3oc4c(c3c2)CCCC4)cc1 [Example 6, 4-TERT-BUTYL-N-(6,7,8,9-TETRAHYDRO-DIBENZOFURAN-2-YL)-BENZAMIDE] |  | 185 to 186 °C | 10 to 20%
Cc1ccccc1C(=O)Nc1ccc2oc3c(c2c1)CCCC3 [Example 12, 2-METHYL-N-(6,7,8,9-TETRAHYDRO-DIBENZOFURAN-2-YL)-BENZAMIDE] |  | 209 to 210 °C | 20 to 30%

Continued, in another order:

IC50 [1] | melting point | Structure (SMILES) | inhibition at 30 µM [1]
1000 to 10000 nM | 188 to 189 °C | O=C(CC1CCCCC1)Nc1ccc2oc3c(c2c1)CCCCC3 [Example 29, 2-CYCLOHEXYL-N-[7,8,9,10-TETRAHYDRO-6H-BENZO[B]-CYCLOHEPTA[d]FURAN-2-YL]ACETAMIDE] | 
100 to 500 nM | 154 to 155 °C | CC(C)CC(=O)Nc1ccc2oc3c(c2c1)CCCCCC3 [Example 64, 3-METHYL-N-[6,7,8,9,10,11-HEXAHYDRO-BENZO[B]-CYCLOOCTA[D]-FURAN-2-YL]BUTYRAMIDE] | 
1000 to 5000 nM | 188.5 to 190 °C | CC(C)(C)C(=O)Nc1ccc2oc3c(c2c1)CCC3 [Example 24, N-(2,3-DIHYDRO-1H-CYCLOPENTA(b)BENZOFURAN-7-YL)-2,2-DIMETHYL-PROPIONAMIDE] | 
 | 207 to 208 °C | Nc1ccc(C(=O)Nc2ccc3oc4c(c3c2)CCCC4)cc1 [Example 16, 4-AMINO-N-(6,7,8,9-TETRAHYDRO-DIBENZOFURAN-2-YL)-BENZAMIDE] | 5 to 10%
350 to 530 nM | 195.5 to 197 °C | CC(C)(C)CC(=O)Nc1ccc2oc3c(c2c1)CCC3 [Example 23, N-(2,3-DIHYDRO-1H-CYCLOPENTA[B]BENZOFURAN-7-YL)-3,3-DIMETHYL-BUTYRAMIDE] | 
 | 279 to 280 °C | O=C(Nc1ccc2oc3c(c2c1)CCCC3)c1ccc([N+](=O)[O-])cc1 [Example 15, 4-NITRO-N-(6,7,8,9-TETRAHYDRO-DIBENZOFURAN-2-YL)-BENZAMIDE] | 10 to 20%
3000 to 8000 nM | 162 to 163 °C | CC(C)CC(=O)Nc1ccc2oc3c(c2c1)CCC3 [Example 25, N-(2,3-DIHYDRO-1H-CYCLOPENTA[B]BENZOFURAN-7-YL)-3-METHYL-BUTYRAMIDE] | 
 | 197 to 197.5 °C | COc1ccc(C(=O)Nc2ccc3oc4c(c3c2)CCCC4)cc1 [Example 13, 4-METHOXY-N-(6,7,8,9-TETRAHYDRO-DIBENZOFURAN-2-YL)-BENZAMIDE] | 15 to 25%
1000 to 5000 nM | 162 to 163 °C | CC(C)CC(=O)Nc1ccc2oc3c(c2c1)CCCCC3 [Example 28, 3-METHYL-N-[7,8,9,10-TETRAHYDRO-6H-Benzo[B]-Cyclohepta[D]FURAN-2-YL]BUTYRAMIDE] | 

Source: patent publication US7601856B2 (Wyeth, priority 2006, dated 2009)
